According to ChEMBL document CHEMBL1129621, “Novel 5-aminoflavone derivatives as specific antitumor agents in breast cancer” (J Med Chem, 1996):

Legend:
WiDr [1] = test: Inhibition of WiDr human cancer cell proliferation; type: functional, cell-based
MCF7 [2] = test: cells; type: functional, cell-based; conditions: Homo sapiens
Description: Anti-proliferative activity against estrogen-responsive human breast cancer cell line MCF-7 in the presence of ER at a 10e-4 uM concentration of estradiol

MCF7 [3] = test: Inhibition of estrogen receptor positive MCF-7 human breast cancer cell proliferation; type: functional, cell-based
Estrogen receptor = Estrogen receptor (Homo sapiens, UniProt Q92731+P03372)
Description: Binding affinity for estrogen receptor, by competition with [3H]estradiol

MDA-MB-453 [4] = test: Inhibition of estrogen receptor negative MDA-MB-453 breast cancer cell proliferation; type: functional, cell-based; conditions: Homo sapiens
HeLa [5] = test: Inhibition of […]e-2 uM estradiol induced human cancer cell HeLa S3 proliferation; type: functional, cell-based
MCF7 [6] = test: cells; type: functional, cell-based; conditions: Homo sapiens; remark: listed apart in the source
Description: Inhibition of 10e-4 uM estradiol induced estrogen receptor positive MCF-7 human breast cancer cell proliferation

MDA-MB-453 [7] = test: cells; conditions: Homo sapiens
Description: Inhibition of estrogen receptor negative MDA-MB-453 breast cancer cell proliferation with 10e-4 M estradiol

WiDr [8] = test: Inhibition of WiDr human cancer cell proliferation with 10e-2 uM estradiol; type: functional, cell-based
HeLa [9] = test: cells; conditions: Homo sapiens
Description: Inhibition of 10e-2 uM estradiol induced human cancer cell HeLa S3 proliferation

SMILES | IC50 (MCF7 [2]) | IC50 (Estrogen receptor) | IC50 (MCF7 [6]) | other results
Nc1ccc(-c2cc(=O)c3c(N)cccc3o2)cc1 | 0.0072 µM | > 100 µM | 0.0098 µM | IC50 (WiDr [1]): > 10 µM; IC50 (MCF7 [3]): 0.052 µM; IC50 (MDA-MB-453 [4]): > 5 µM; IC50 (HeLa [5]): > 10 µM
Nc1cccc2oc(-c3ccc(NCc4ccccc4)cc3)cc(=O)c12 | 4.1 µM | > 100 µM | 4.3 µM | –
CN(C)c1ccc(-c2cc(=O)c3cc(N)ccc3o2)cc1 | 0.013 µM | – | 0.035 µM | –
CN(C)c1ccc(-c2cc(=O)c3ccc(N)cc3o2)cc1 | 5 µM | – | 6.9 µM | –
O=c1cc(-c2ccc(O)cc2)oc2cc(O)cc(O)c12 [APIGENIN] | > 100 µM | – | 95 µM | –
CN(C)c1cccc(-c2cc(=O)c3cc(N)ccc3o2)c1 | 13 µM | – | 13 µM | –
CC(=O)Nc1ccc(-c2cc(=O)c3c(N)cccc3o2)cc1 | 13 µM | > 100 µM | 18 µM | –
Nc1cccc2oc(-c3ccccc3)cc(=O)c12 | 13 µM | > 100 µM | > 100 µM | –
CN(C)c1ccc(-c2cc(=O)c3cccc(N)c3o2)cc1 | 0.021 µM | – | 2 µM | –
Nc1cccc2oc(-c3ccc(Br)cc3)cc(=O)c12 | 1 µM | > 100 µM | 9.5 µM | –
O=c1c(-c2ccc(O)cc2)coc2cc(O)cc(O)c12 [GENISTEIN] | 11 µM | – | 77 µM | –
COc1ccc(-c2cc(=O)c3c(N)cccc3o2)cc1 | 12 µM | > 100 µM | > 100 µM | –
CCCCCCNc1ccc(-c2cc(=O)c3c(N)cccc3o2)cc1 | 0.075 µM | – | 0.44 µM | –
Nc1cccc2oc(-c3ccc(O)cc3)cc(=O)c12 | 1.5 µM | 18 µM | > 100 µM | –
Nc1cccc2oc(-c3ccc(C(=O)O)cc3)cc(=O)c12 | > 10 µM | – | > 10 µM | –
CCN(CC)c1ccc(-c2cc(=O)c3c(N)cccc3o2)cc1 | 0.002 µM | – | 0.01 µM | –
N#Cc1ccc(-c2cc(=O)c3c(N)cccc3o2)cc1 | > 100 µM | > 100 µM | 94 µM | –
CC/C(=C(\c1ccccc1)c1ccc(OCCN(C)C)cc1)c1ccccc1 [TAMOXIFEN] | 0.14 µM | – | 19 µM | IC50 (MDA-MB-453 [7]): > 5 µM
CCNc1ccc(-c2cc(=O)c3c(N)cccc3o2)cc1 | 0.0013 µM | > 100 µM | 0.0017 µM | IC50 (WiDr [1]): > 10 µM; IC50 (MCF7 [3]): 0.092 µM; IC50 (HeLa [5]): > 10 µM
CCCNc1ccc(-c2cc(=O)c3c(N)cccc3o2)cc1 | 0.0067 µM | > 100 µM | 0.0087 µM | –
CCCCNc1ccc(-c2cc(=O)c3c(N)cccc3o2)cc1 | 0.0051 µM | > 100 µM | 0.0087 µM | –
Nc1cccc(-c2cc(=O)c3c(N)cccc3o2)c1 | 27 µM | – | > 100 µM | –
CNc1ccc(-c2cc(=O)c3c(N)cccc3o2)cc1 | 0.0023 µM | > 100 µM | 0.0054 µM | IC50 (WiDr [1]): > 10 µM; IC50 (MCF7 [3]): 0.076 µM; IC50 (HeLa [5]): 6.3 µM
CN(C)c1ccc(-c2cc(=O)c3c(N)cccc3o2)cc1 | 0.004 µM | > 100 µM | 0.005 µM | –
COc1cccc2c1C(=O)c1c(O)c3c(c(O)c1C2=O)C[C@@](O)(C(=O)CO)C[C@@H]3O[C@H]1C[C@H](N)[C@H](O)[C@H](C)O1 [DOXORUBICIN] | – | – | – | IC50 (WiDr [8]): 0.62 µM; IC50 (HeLa [9]): 0.03 µM
